According to publication PMC10415461 (Molecular Diversity, 2022):
Values after ≈ are worked out from the molar mass of the structure shown. Where two headings read alike, the source gives them in different places.

Assays:
S. aureus (ATCC 6538) = assay: Antibacterial MIC, standard agar cup diffusion method; format: cell-based, Staphylococcus aureus; conditions: 24 h; for MIC: Staphylococcus aureus, ATCC6538, 37 °C, read-out: MIC S. aureus (Gram-positive)
Method: (§1) The antibacterial and antifungal activities of compounds, ketone 1, 2a-j, and 5a-i were evaluated in vitro against S. aureus (ATCC 6538), P. aeruginosa (ATCC 10,145), E. coli (ATCC 8739), and C. albicans (ATCC 10,231). […] Standard strains of Staphylococcus aureus (ATCC 6538), Pseudomonas aeruginosa (ATCC 10,145), and Escherichia coli (ATCC 8739) were obtained from microbiological resource center, Faculty of Agriculture, Ain Shams University, Cairo, Egypt. All isolates were maintained at -70 °C in Trypticase Soya Broth (TSB, Becton, and Dickinson) with 10% glycerol. Prior to inoculation, all isolates were subcultured at 37 °C for 24 h on Trypticase Soya Agar (TSA, Becton, and Dickinson) and TSB, respectively.
(§2) The plates were rotated slowly to ensure uniform distribution of the microorganisms and then allowed to solidify on a flat surface. After solidification, four equidistant and circular wells of 10 mm diameter were carefully punched using a sterile cork bore. Twofold serial dilutions of the tested compounds using DMSO were performed. An equal volume of 100µL of each dilution was applied separately to each well in three replicates using a micropipette. All plates were incubated at 37 °C for 24 h. The inhibition zones were measured, and their average was calculated.

[1] = system: P. aeruginosa (ATCC 10,145); assay: as above; format: cell-based; conditions: Pseudomonas aeruginosa, ATCC 10145, 37 °C, 24 h, read-out: MIC P. aeruginosa (Gram-negative)
Method: as §1, §2

E. coli (ATCC 8739) = assay: as above; format: cell-based; conditions: Escherichia coli, ATCC8739, 37 °C, 24 h, read-out: MIC E. coli (Gram-negative)
Method: as §1, §2

[2] = system: C. albicans (ATCC 10,231); assay: Antifungal MIC, agar cup diffusion method; format: cell-based, Candida albicans; conditions: Sabouraud agar, 37 °C; for MIC: Candida albicans, ATCC 10,231, 24 h, read-out: MIC C. albicans (Fungi); for MIC C. albicans (Fungi): 24 h
Method: The antibacterial and antifungal activities of compounds, ketone 1, 2a-j, and 5a-i were evaluated in vitro against S. aureus (ATCC 6538), P. aeruginosa (ATCC 10,145), E. coli (ATCC 8739), and C. albicans (ATCC 10,231). […] The antifungal activity of compounds 1, 2a-j, and 5a-i and ketoconazole were determined according to the agar cup diffusion method at Deraya University, Faculty of Pharmacy, Department of Microbiology.
Fungal strains and culture conditions. […] Standard strain of Candida albicans (ATCC 10,231) was obtained from microbiological resource center, Faculty of Agriculture, Ain Shams University, Cairo, Egypt. The isolate was maintained at -70 °C in Trypticase Soya Broth (TSB, Becton, and Dickinson) with 10% glycerol. Prior to inoculation, the isolate was subcultured at 37 °C for 24 h on Trypticase Soya Agar (TSA, Becton, and Dickinson) and TSB, respectively.
as §2

physchem = conditions: pH 7.8
Method: The n-octanol/water apparent partition coefficient at the isoelectric point (or distribution constant) was measured by using the traditional shake-flask technique. The pH of the aqueous buffer was first adjusted to isoelectric point of the compound. The n-octanol and aqueous phases were then mutually saturated before the measurement. […] The samples were agitated for 5h at water bath shaker thermostatized at 25 ± 1^◦C and 100 rpm. The concentration of the solute was determined in the aqueous and organic phases at the isoelectric point by UV spectroscopy the log p value was calculated as follows: […].

S. aureus DNA gyrase = S. aureus DNA gyrase (Staphylococcus aureus, UniProt P0A0K8+P20831); assay: Staphylococcus aureus DNA gyrase supercoiling assay; format: biochemical; conditions: supercoiling of relaxed pBR322, 37 °C, 30 min; read-out: S. aureus DNA gyrase IC50 ± SD
Method: As antibacterial agents, fluoroquinolones act by targeting and inhibiting DNA gyrase (topo II) which is an essential enzyme involved in the DNA replication process.
Staphylococcus aureus DNA gyrase was incubated at 37 °C for 30 min in a total reaction volume of 30 μl containing 40 mM HEPES. KOH (pH 7.6), 10 mM magnesium acetate, 10 mM DTT, 2 mM ATP, 500 mM potassium glutamate, 0.05 mg/ml albumin and Relaxed pBR322. DNA gyrase supercoiling reactions catalyzed by S. aureus gyrase, Stop reaction by adding 30 μL of STEB and 30 μL of chloroform/isoamyl alcohol (v:v, 24:1),and then Vortex briefly ~ 5 secs and centrifuge for 1 min. after which 20 µL of this was loaded on a 1% agarose gel that was then run at ~ 75 V for approximately 2 h. The gel was stained by (0.5 mg/L) ethidium bromide in water. Fluorescent images were taken at a wavelength of 300 nm on a UV transilluminator imaging system. The fluorescence intensity of the supercoiled plasmid reaction product was quantitated using ImagQuant software (Molecular Dynamics).

[3] = Solubility determination in phosphate buffer; format: physicochemical; conditions: aqueous buffer, thermodynamic from solid
Method: A sample of drug was accurately weighed and dissolved in 100 ml of distilled water to prepare 100 mcg/ml stock solutions. Appropriate dilution of the stock solution with phosphate buffer pH 6.8 and 7.8 was then made to prepare a working solution of 40mcg/ml.
After determination of λ max of drug, a calibration curve was constructed by preparing solutions containing different concentrations of (1–5 mcg/ml) from stock solution after appropriate dilution with phosphate buffer pH 6.8. The UV absorbance of the prepared sample solutions were measured at the predetermined λ max using phosphate buffer pH 6.8 as a blank.
Aqueous solubility of the complexes was measured as a function of pH. An excess of each derivative was placed into suitable stoppered containers. […] The samples were immersed in a water bath thermostatized at 37 ± 1^◦C and 100 rpm and periodically shaken for 48 h. Once the equilibrium was reached, the pH of the supernatant was regarded.

[4] = phosphate buffer pH 6.8, 37 °C, read-out: Solubility pH 6.8
[5] = phosphate buffer pH 7.8, 37 °C, read-out: Solubility pH 7.8

Row | MIC S. aureus (Gram-positive) (S. aureus (ATCC 6538); 37 °C) [µg/mL] | MIC [2] [µg/mL] | Lipophilicity (log p) (physchem) | SMILES | MIC (S. aureus (ATCC 6538)) [µg/mL] | MIC [1] [µg/mL] | MIC (E. coli (ATCC 8739)) [µg/mL] | logD (physchem) | IC50 (S. aureus DNA gyrase) [µM] | solubility at 48 h [3, 4] [µg/mL] | solubility at 48 h [3, 5] [µg/mL] | MIC C. albicans (Fungi) [2] [µg/mL] | melting point [°C]
1 | 0.70 (≈ 1.42 µM) | > 100 |  | CC(=O)c1ccc(NC(=O)N2CCN(c3cc4c(cc3F)c(=O)c(C(=O)O)cn4C3CC3)CC2)cc1 [Compound 1] | 0.7 (≈ 1.42 µM) | 1.2 (≈ 2.44 µM) | 0.6 (≈ 1.22 µM) |  |  |  |  |  | 
2 |  | > 100 |  | O=C(/C=C/c1ccc(Br)cc1)c1ccc(NC(=O)N2CCN(c3cc4c(cc3F)c(=O)c(C(=O)O)cn4C3CC3)CC2)cc1 [Compound 2d] | 2.65 (≈ 4.02 µM) | 7.25 (≈ 11 µM) | 4.78 (≈ 7.25 µM) | 0.42 |  | 140 (≈ 212 µM) | 160 (≈ 243 µM) |  | 
3 |  | > 100 |  | COc1ccc(/C=C/C(=O)c2ccc(NC(=O)N3CCN(c4cc5c(cc4F)c(=O)c(C(=O)O)cn5C4CC4)CC3)cc2)cc1 [Compound 2g] | 8 (≈ 13.1 µM) | 6.25 (≈ 10.2 µM) | 17 (≈ 27.8 µM) |  |  |  |  |  | 
4 |  | 84.2 (≈ 135 µM) | − 0.21 | CN(C)c1ccc(/C=C/C(=O)c2ccc(NC(=O)N3CCN(c4cc5c(cc4F)c(=O)c(C(=O)O)cn5C4CC4)CC3)cc2)cc1 [Compound 2h] | 1.2 (≈ 1.92 µM) | 3.12 (≈ 5.01 µM) | 5.25 (≈ 8.42 µM) |  |  | 680 (≈ 1090 µM) | 780 (≈ 1250 µM) |  | 
5 |  | > 100 | − 0.06 | COc1ccc(/C=C/C(=O)c2ccc(NC(=O)N3CCN(c4cc5c(cc4F)c(=O)c(C(=O)O)cn5C4CC4)CC3)cc2)cc1OC [Compound 2i] | 6.3 (≈ 9.83 µM) | 17 (≈ 26.5 µM) | 4.13 (≈ 6.45 µM) |  |  | 150 (≈ 234 µM) | 190 (≈ 297 µM) |  | 
6 |  | > 100 |  | COc1cc(/C=C/C(=O)c2ccc(NC(=O)N3CCN(c4cc5c(cc4F)c(=O)c(C(=O)O)cn5C4CC4)CC3)cc2)cc(OC)c1OC [Compound 2j] | 1.48 (≈ 2.21 µM) | 4.2 (≈ 6.26 µM) | 5.13 (≈ 7.65 µM) | 0.34 |  | 180 (≈ 268 µM) | 150 (≈ 224 µM) |  | 
7 |  | 36.1 (≈ 53.2 µM) |  | N#Cc1c(-c2ccc(Br)cc2)nc(SCC(=O)N2CCN(c3cc4c(cc3F)c(=O)c(C(=O)O)cn4C3CC3)CC2)[nH]c1=O [Compound 5d, 7-(4-(2-((4-(4-Bromophenyl)-5-cyano-6-oxo-1,6-dihydropyrimidin-2-yl)thio)acetyl)piperazin-1-yl)-1-cyclopropyl-6-fluoro-4-oxo-1,4-dihydroquinoline-3-carboxylic acid] | 8.14 (≈ 12 µM) | 12.3 (≈ 18.1 µM) | 42.2 (≈ 62.1 µM) |  |  |  |  |  | 284 to 285
8 |  | 2.6 (≈ 4.89 µM) |  | CC(=O)N1CCN(c2ccc(OCC3COC(Cn4ccnc4)(c4ccc(Cl)cc4Cl)O3)cc2)CC1 (stereo not shown) [Ketoconazole, reference compound] |  |  |  |  |  |  |  |  | 

Row | SMILES | MIC S. aureus (Gram-positive) (S. aureus (ATCC 6538); 37 °C) [µg/mL] | MIC [2] [µg/mL] | Lipophilicity (log p) (physchem) | MIC (S. aureus (ATCC 6538)) [µg/mL] | MIC [1] [µg/mL] | MIC (E. coli (ATCC 8739)) [µg/mL] | logD (physchem) | IC50 (S. aureus DNA gyrase) [µM] | solubility at 48 h [3, 4] [µg/mL] | solubility at 48 h [3, 5] [µg/mL] | MIC C. albicans (Fungi) [2] [µg/mL] | melting point [°C]
9 | O=C(/C=C/c1ccccc1)c1ccc(NC(=O)N2CCN(c3cc4c(cc3F)c(=O)c(C(=O)O)cn4C3CC3)CC2)cc1 [Compound 2a] |  | > 100 |  | 0.74 (≈ 1.27 µM) | 1.12 (≈ 1.93 µM) | 0.64 (≈ 1.1 µM) | 0.24 | 3.47 ± 0.18 | 210 (≈ 362 µM) | 150 (≈ 258 µM) |  | 
10 | O=C(/C=C/c1ccc(F)cc1)c1ccc(NC(=O)N2CCN(c3cc4c(cc3F)c(=O)c(C(=O)O)cn4C3CC3)CC2)cc1 [Compound 2e] |  | 2.03 to 3.89 (≈ 3.39 to 6.5 µM) |  | 0.89 (≈ 1.49 µM) | 0.96 (≈ 1.6 µM) | 0.53 (≈ 0.885 µM) | 0.07 | 3.81 ± 0.2 | 160 (≈ 267 µM) | 180 (≈ 301 µM) | 2.03 (≈ 3.39 µM) | 
11 | Cc1ccc(/C=C/C(=O)c2ccc(NC(=O)N3CCN(c4cc5c(cc4F)c(=O)c(C(=O)O)cn5C4CC4)CC3)cc2)cc1 [Compound 2f] |  | > 100 |  | 0.94 (≈ 1.58 µM) | 3.7 (≈ 6.22 µM) | 9.33 (≈ 15.7 µM) | 0.4 | 1.77 ± 0.09 | 160 (≈ 269 µM) | 170 (≈ 286 µM) |  | 
12 | N#Cc1c(-c2ccc(Cl)cc2)nc(SCC(=O)N2CCN(c3cc4c(cc3F)c(=O)c(C(=O)O)cn4C3CC3)CC2)[nH]c1=O [Compound 5c, 7-(4-(2-((4-(4-Chlorophenyl)-5-cyano-6-oxo-1,6-dihydropyrimidin-2-yl)thio)acetyl)piperazin-1-yl)-1-cyclopropyl-6-fluoro-4-oxo-1,4-dihydroquinoline-3-carboxylic acid] |  | 2.03 to 3.89 (≈ 3.2 to 6.13 µM) |  | 0.58 (≈ 0.913 µM) | 2.04 (≈ 3.21 µM) | 1.03 (≈ 1.62 µM) |  | 1.57 ± 0.08 |  |  | 2.87 (≈ 4.52 µM) | 253 to 256
13 | N#Cc1c(-c2ccc(F)cc2)nc(SCC(=O)N2CCN(c3cc4c(cc3F)c(=O)c(C(=O)O)cn4C3CC3)CC2)[nH]c1=O [Compound 5e, 7-(4-(2-((4-(4-Fluorophenyl)-5-cyano-6-oxo-1,6-dihydropyrimidin-2-yl)thio)acetyl)piperazin-1-yl)-1-cyclopropyl-6-fluoro-4-oxo-1,4-dihydroquinoline-3-carboxylic acid] |  | 2.03 to 3.89 (≈ 3.28 to 6.29 µM) |  | 0.78 (≈ 1.26 µM) | 3.25 (≈ 5.25 µM) | 0.52 (≈ 0.841 µM) |  | 1.01 ± 0.05 |  |  | 2.51 (≈ 4.06 µM) | 242 to 245
14 | Cc1ccc(-c2nc(SCC(=O)N3CCN(c4cc5c(cc4F)c(=O)c(C(=O)O)cn5C4CC4)CC3)[nH]c(=O)c2C#N)cc1 [Compound 5f] |  | > 100 |  | 4.79 (≈ 7.79 µM) | 2.95 (≈ 4.8 µM) | 3.89 (≈ 6.33 µM) |  | 3.5 ± 0.19 |  |  |  | 264 to 267
15 | COc1ccc(-c2nc(SCC(=O)N3CCN(c4cc5c(cc4F)c(=O)c(C(=O)O)cn5C4CC4)CC3)[nH]c(=O)c2C#N)cc1 [Compound 5g, 7-(4-(2-((5-Cyano-4-(4-methoxyphenyl)-6-oxo-1,6-dihydropyrimidin-2-yl)thio)acetyl)piperazin-1-yl)-1-cyclopropyl-6-fluoro-4-oxo-1,4-dihydroquinoline-3-carboxylic acid] |  | > 100 | − 0.09 | 0.28 (≈ 0.444 µM) | 23.1 (≈ 36.7 µM) | 14.2 (≈ 22.6 µM) |  | 7.59 ± 0.4 | 740 (≈ 1170 µM) | 900 (≈ 1430 µM) |  | 239 to 242
